Entries after “also recorded” stand apart in the source; their conditions may differ. Where no end group is shown, it is not given here.
Key:
[1] = test system: EDA-containing fibronectin; assay: Endogenous (cellular) fibronectin assembly assay, human fibroblasts (AH1F); format: cell-based; settings: doses up to 500 nM; for IC50: endogenous EDA+-fibronectin, human fibroblasts, read-out: IC50 of fibronectin assembly inhibition
Excerpt: (§1) Endogenous (cellular) fibronectin assembly assay: This immunochemical assay measures the ECM incorporation of EDA-containing fibronectin synthesized by human fibroblasts and human proximal tubular epithelial cells. Human proximal epithelial cells, HK-2 cells, were obtained from ATCC (CRL-2190). The EDA+ fibronectin is a splice variant synthesized and secreted by a variety of cells mostly during embryonic development and during wound healing, ECM remodeling, or fibrotic conditions in the adult. Fibroblasts (AH1F) were cultured in DMEM (Gibco) containing 10% fetal calf serum, and human proximal tubular epithelial cells (HK-2) were cultured in keratinocyte serum free medium (KSFM, containing pituitary extract and rEGF, Invitrogen/Thermo Fisher). Both media also contained 2.5 mM glutamine, 100 IU/ml penicillin, and 100 μg/ml streptomycin. Confluent cells were trypsinized and resuspended in DMEM containing 2% FCS in DMEM for AH1F cells or KSFM for HK-2 cells, at densities that allow delivery of 60,000 AH1F or 20,000 HK-2 cells in 90 μl per well in black-walled, flat transparent bottom 96-well plates. Cells were incubated for 2 h at 37° C. with 5% CO2 and checked microscopically for spreading and confluence. Peptides were then added in 10 μl volumes at 10-fold the desired final concentration. Cell monolayers in microplates were incubated overnight in a humidified 37° C., 5% CO2 chamber. After approximately 22 h, 10 μl of AlamarBlue® was added to the cell monolayers and incubated at 37° C. for 2 h to assess cell viability. Fluorescence of AlamarBlue® was read at 555 nm excitation and 585 nm emission. Microplates were washed twice with HBSS containing Ca^2+, Mg^2+ and 50 μl/well of 4% paraformaldehyde (PFA) in PBS was then added for 10 min at room temperature. […] Similar to the measurement of exogenous A488-FN fluorescence, A488-EDA fluorescence was read using microplate reader equipped with bottom-readout capabilities at 485 nm excitation and 525 nm emission. Fluorescence of wells to which A488-IgG was added, i.e., background green fluorescence from non-specific IgG binding and from the cell monolayer was subtracted from fluorescence values of wells incubated with A488-EDA. Data is presented for fibronectin fibrillogenesis or cell viability as percent of fluorescence values (AlexaFluor® 488 fluorescence or AlamarBlue®, respectively) for wells with no peptides.
(§2) To determine whether PEG-FUD retained its ability to inhibit fibronectin fibrillogenesis, PEG-FUD and FUD were compared in cell-based fibronectin matrix assembly assays. The ability of PEG-FUD to inhibit the incorporation of exogenous fibronectin derived from plasma and also of fibronectin endogenously produced by the cultured cells was measured, since fibrosis is likely to contain fibronectin from both sources. […]

UUO kidneys = assay: Unilateral Ureteral Obstruction (UUO) model of kidney fibrosis; format: in vivo, mouse; settings: for decrease in CD45 staining (leukocyte infiltration) / decrease in collagens (picrosirius red birefringence): UUO kidney sections; for decrease of fibronectin deposition (immunohistochemistry): UUO kidneys, s.c. 0.3 mg per day, day 3 to day 9, vs saline; for qualitative H&E histology of UUO kidneys: compared to saline
Excerpt: Unilateral Ureteral Obstruction model. […] All efforts were made to minimize suffering. […] PEGylated peptide equivalent amounts were based on peptide concentration.
Thus, the right, contralateral, kidney of each mouse was utilized as a control to the left UUO-treated kidney. The data from two cohorts of UUO-treated mice were combined for this study composed of the following groups (n): saline (n=5), PEG (n=4), FUD (n=5), PEG-FUD (n=8) and PEG-mFUD (n=3).
Histology and immunostaining: Paraffin-embedded tissues were sectioned at 4 μm and stained with H&E and Picrosirius Red, and IHC for fibronectin and CD45 for leukocytes. […] Staining for fibronectin was carried out using a rabbit polyclonal antibody to mouse fibronectin (RamFN) which was described in the art. RamFN diluted at 1:5000 required prior proteinase K antigen retrieval and was developed with ImmPRESS Rabbit Ig HRP. Staining for leukocytes was carried out using the pan leukocyte antibody rat anti-mouse CD45 (Leukocyte Common antigen, Ly-5, BD Pharmingen, clone 30-F11) at 1:100 after citrate pH 6.0 antigen retrieval and developed with ImmPRESS rat Ig HRP. RamFN and CD45 staining was counter stained with hematoxylin to demarcate nuclei.
Stained tissue sections were imaged using the 20× objective on an upright brightfield Nikon Eclipse 600 microscope. This microscope was also equipped with polarizer capabilities utilized to assess the birefringence of the picrosirius red-stained collagen fibers. Quantitation of birefringence or DAB product following development of HRP stains was carried out using Image J (Sun Microsystems.Ink) from 6 images from each mouse section obtained at random within the central cortical area and excluding large blood vessels and the kidney capsule.

[2] = test system: EDA-containing fibronectin; assay: Endogenous (cellular) fibronectin assembly assay, human proximal tubular epithelial cells (HK-2); format: cell-based; settings: doses up to 500 nM; for IC50: endogenous EDA+-fibronectin, human proximal tubular epithelial cells, read-out: IC50 of fibronectin assembly inhibition
Excerpt: as §1, §2

Sequence of EDA-containing fibronectin (P02751 32-608 limits assumed): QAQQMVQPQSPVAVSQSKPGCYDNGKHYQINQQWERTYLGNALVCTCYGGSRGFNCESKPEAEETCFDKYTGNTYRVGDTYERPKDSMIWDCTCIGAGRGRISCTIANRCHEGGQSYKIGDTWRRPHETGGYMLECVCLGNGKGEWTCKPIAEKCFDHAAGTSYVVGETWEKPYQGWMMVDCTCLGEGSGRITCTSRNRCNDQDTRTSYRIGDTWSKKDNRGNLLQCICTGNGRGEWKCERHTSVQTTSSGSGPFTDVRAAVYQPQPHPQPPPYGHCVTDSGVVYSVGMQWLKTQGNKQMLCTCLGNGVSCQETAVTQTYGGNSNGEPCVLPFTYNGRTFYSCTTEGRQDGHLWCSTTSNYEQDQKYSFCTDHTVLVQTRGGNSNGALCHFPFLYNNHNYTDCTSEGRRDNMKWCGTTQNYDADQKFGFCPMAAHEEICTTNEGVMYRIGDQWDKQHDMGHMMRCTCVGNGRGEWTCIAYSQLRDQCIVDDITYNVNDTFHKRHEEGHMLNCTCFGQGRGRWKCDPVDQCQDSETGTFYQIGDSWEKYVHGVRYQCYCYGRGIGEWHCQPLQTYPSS

Substance	inhibition of assembly of cellular fibronectin by fibroblasts [1] [%]	IC50 [1] [nM]	decrease in CD45 staining (leukocyte infiltration) (UUO kidneys)	decrease in collagens (picrosirius red birefringence) (UUO kidneys)	decrease of fibronectin deposition (immunohistochemistry) (UUO kidneys) [%]	qualitative H&E histology of UUO kidneys (UUO kidneys)	inhibition of fibronectin assembly by proximal tubular epithelial cells [2] [%]	IC50 [2] [nM]
FUD: 49 amino acid FUD peptide, SEQ ID NO: 1, recombinantly expressed, His-tag removed; inhibitor of fibronectin fibrillogenesis (KDQSPLAGESGETEYITEVYGNQQNPVDIDKKLPNETGFSGNMVETEDT; human) [reference compound]	70	~30	approximately 50%	about 50%	40	greater eosinophilic staining	50	~30
PEG-FUD: PEGylated FUD prepared as in Example 1, PEG size not stated; approximately 27 kDa by mass spectrometry, likely the 20 kDa conjugate (KDQSPLAGESGETEYITEVYGNQQNPVDIDKKLPNETGFSGNMVETEDT; not fully specified (N-terminus); also: PEG size not given here)	70	~30	approximately 50%	about 50%	70	greater eosinophilic staining; also recorded: clearer tubular preservation and vascularized glomeruli	50	~30

From patent US10828372B2, “Compositions and methods for the inhibition of fibrosis” (WISCONSIN ALUMNI RESEARCH FOUNDATION, priority 2017, dated 2020)
